Source: patent US20220117938A1, “COMBINATON THERAPY WITH A DON PRODRUG AND AN IMMUNE CHECKPOINT INHIBITOR” (DRACEN PHARMACEUTICALS, INC., priority 2019, published 2022)

Tested on: MC-38 tumors
Assay: Anti-tumor efficacy of Compound 1 in the subcutaneous MC-38 murine colorectal cancer model: dose response (Example 1)
Format: in vivo, Mus musculus
Conditions: for Tumor volume (mm^3), Mean ± SEM: n = 8; for RTV at day 14 / T/C (%) / TGI (%) / Tumor Size (mm^3) at day 14: day 14; for ILS (%) / MST: endpoint tumor volume 2000 mm^3
Protocol: Female C57BL/6 mice were inoculated subcutaneously at right flank with MC-38 cells for tumor development. Four days after tumor inoculation, 64 mice with tumor size ranging from 50-92 mm^3 (average tumor size 63 mm^3) were selected and assigned into 8 groups using stratified randomization with 8 mice per group based upon their tumor volumes. The treatments were started from the day of randomization (defined as D0), Group 1 was treated with Vehicle (Tween 80:Ethanol:Saline—5:5:90 v/v/v), S.C. QD, Group 2 was treated with Compound 1 (0.1 mg/kg), S.C. QD, Group 3 was treated with Compound 1 (0.3 mg/kg), S.C. QD, Group 4 was treated with Compound 1 (0.5 mg/kg), S.C. QD, Group 5 was treated with Compound 1 (1 mg/kg), S.C. QD, Group 6 was treated with Compound 1 (3 mg/kg), S.C. QD*5 days followed by Compound 1 (1 mg/kg), S.C. QD*9 days (2 cycles), Group 7 was treated with Compound 1 (1 mg/kg), S.C. QD*5 days followed by Compound 1 (0.3 mg/kg), S.C. QD*9 days (2 cycles) and Group 8 was treated with Compound 1 (0.15 mg/kg), S.C. BID. The tumor sizes were measured three times per week during the treatment. The entire study was terminated on D74 after start of the treatment.
Animal Species: Mus musculus; Strain: C57BL/6; Age: 6-8 weeks; Sex: female; Body weight (at treatment start): 17-21 g.
The MC-38 tumor cells were maintained in vitro as a monolayer culture in DMEM medium supplemented with 10% heat inactivated fetal bovine serum and 100 μg/mL penicillin streptomycin at 37° C. in an atmosphere of 5% CO2 in air. The tumor cells were routinely subcultured twice weekly by trypsin-EDTA treatment. The cells growing to a confluency around 70%-80% were harvested and counted for tumor inoculation. The cultured MC-38 were harvested, re-suspended in base medium at a density of 1×10^7 cells/mL with viability>90%. Each mouse was inoculated subcutaneously at the right flank with 1×10^6 in 0.1 ml base medium for tumor development.
The treatments were started on day 4 after tumor inoculation when the tumor size reached 50-92 mm^3 (average tumor size 63 mm^3). Each group consisted of 8 tumor bearing mice. The testing article was administrated at a dosing volume of […] to the mice according to the predetermined regimen shown in Table 1-1. Testing article formulations were prepared according to standard procedures. Details regarding tumor measurements and endpoints, and statistical analysis are provided in EXAMPLE 3.
Tumor sizes were measured three times a week in two dimensions using a caliper, and the volume expressed in mm^3 using the formula: V=0.5 a×b^2 where a and b are the long and short diameters of the tumor, respectively. The tumor sizes were then used for the calculations of both tumor growth inhibition (TGI) and T/C values.
TGI is calculated for each group using the formula: […]
TVTreatment_DayN is the average tumor volume of a treatment group on a given day, TVTreatment_Day0 is the average tumor volume of the treatment group on the first day of treatment, TVVehicle_DayN is the average tumor volume of the vehicle control group on a given day, and TVVehicle_Day0 is the average tumor volume of the vehicle group on the first day of treatment.
The T/C value (in percent) is an indication of antitumor effectiveness, T/C (%)=RTVTreatment/RTVControl×100% (RTVTreatment: the mean RTV of the treatment group; RTVControl: the mean RTV of the vehicle treated group). RTV (relative tumor volume)=TVDayN/TVDay0. TVDayN and TVDay0 is the tumor volume on day N and Day 0 respectively. T/C (%)≤42% is considered as significant antitumor activity and <10% is considered as highly significant antitumor activity by the National Cancer Institute criteria.
Animal survival curve: When an individual animal reached to the termination endpoint (TV>2000 mm^3), the mouse was euthanized. The time from treatment initiation to the termination was deemed as its survival time. Survival curve was plotted by Kaplan-Meier method. Median survival time (MST) was calculated for each group. […]

[1] = 1 & 0.3 mg/kg (1 mg/kg QDx5 then 0.3 mg/kg QDx9 S.C.)
[2] = 3 & 1 mg/kg (3 mg/kg QDx5 then 1 mg/kg QDx9 S.C.)
[3] = Treatment (0.1) mg/kg, last line of the table

Compound: CC(=O)N[C@@H](Cc1c[nH]c2ccccc12)C(=O)N[C@@H](CCC(=O)C=[N+]=[N-])C(=O)OC(C)C [Compound 1, Isopropyl (S)-2-((S)-2-acetamido-3-(1H-indol-3-yl)propanamido)-6-diazo-5-oxohexanoate]
- Tumor volume (mm^3), Mean ± SEM (0.1 mg/kg S.C. QD, Day 0): 62 ± 4 mm^3
- Tumor volume (mm^3), Mean ± SEM (0.1 mg/kg S.C. QD, Day 2): 91 ± 10 mm^3
- Tumor volume (mm^3), Mean ± SEM (0.1 mg/kg S.C. QD, Day 4): 112 ± 11 mm^3
- Tumor volume (mm^3), Mean ± SEM (0.1 mg/kg S.C. QD, Day 7): 183 ± 32 mm^3
- Tumor volume (mm^3), Mean ± SEM (0.1 mg/kg S.C. QD, Day 9): 247 ± 40 mm^3
- Tumor volume (mm^3), Mean ± SEM (0.1 mg/kg S.C. QD, Day 11): 368 ± 72 mm^3
- Tumor volume (mm^3), Mean ± SEM (0.1 mg/kg S.C. QD, Day 14): 744 ± 154 mm^3
- RTV at day 14 (0.1 mg/kg S.C. QD): 12.29 ± 7.63
- T/C (%) (0.1 mg/kg S.C. QD): 40.26%
- TGI (%) (0.1 mg/kg S.C. QD): 62.52%
- Tumor Size (mm^3) at day 14 (0.1 mg/kg S.C. QD): 743.79 ± 153.64 mm^3
- ILS (%) (0.1 mg/kg): 22%
- MST (0.1 mg/kg): 19.5 days
- ILS (%) (0.15 mg/kg (BID)): 88%
- MST (0.15 mg/kg (BID)): 30 days
- Tumor volume (mm^3), Mean ± SEM (0.15 mg/kg S.C. BID, Day 0): 63 ± 5 mm^3
- Tumor volume (mm^3), Mean ± SEM (0.15 mg/kg S.C. BID, Day 2): 87 ± 6 mm^3
- Tumor volume (mm^3), Mean ± SEM (0.15 mg/kg S.C. BID, Day 4): 109 ± 6 mm^3
- Tumor volume (mm^3), Mean ± SEM (0.15 mg/kg S.C. BID, Day 7): 195 ± 28 mm^3
- Tumor volume (mm^3), Mean ± SEM (0.15 mg/kg S.C. BID, Day 9): 237 ± 30 mm^3
- Tumor volume (mm^3), Mean ± SEM (0.15 mg/kg S.C. BID, Day 11): 288 ± 43 mm^3
- Tumor volume (mm^3), Mean ± SEM (0.15 mg/kg S.C. BID, Day 14): 369 ± 56 mm^3
- Tumor volume (mm^3), Mean ± SEM (0.3 mg/kg S.C. QD, Day 0): 62 ± 4 mm^3
- Tumor volume (mm^3), Mean ± SEM (0.3 mg/kg S.C. QD, Day 2): 76 ± 5 mm^3
- Tumor volume (mm^3), Mean ± SEM (0.3 mg/kg S.C. QD, Day 4): 88 ± 7 mm^3
- Tumor volume (mm^3), Mean ± SEM (0.3 mg/kg S.C. QD, Day 7): 110 ± 14 mm^3
- Tumor volume (mm^3), Mean ± SEM (0.3 mg/kg S.C. QD, Day 9): 143 ± 26 mm^3
- Tumor volume (mm^3), Mean ± SEM (0.3 mg/kg S.C. QD, Day 11): 140 ± 29 mm^3
- Tumor volume (mm^3), Mean ± SEM (0.3 mg/kg S.C. QD, Day 14): 235 ± 80 mm^3
- RTV at day 14 (0.3 mg/kg S.C. QD): 3.83 ± 3.95
- T/C (%) (0.3 mg/kg S.C. QD): 12.54%
- TGI (%) (0.3 mg/kg S.C. QD): 90.47%
- Tumor Size (mm^3) at day 14 (0.3 mg/kg S.C. QD): 235.18 ± 79.89 mm^3
- ILS (%) (0.3 mg/kg): 94%
- MST (0.3 mg/kg): 31 days
- Tumor volume (mm^3), Mean ± SEM (0.5 mg/kg S.C. QD, Day 0): 63 ± 5 mm^3
- Tumor volume (mm^3), Mean ± SEM (0.5 mg/kg S.C. QD, Day 2): 79 ± 4 mm^3
- Tumor volume (mm^3), Mean ± SEM (0.5 mg/kg S.C. QD, Day 4): 97 ± 8 mm^3
- Tumor volume (mm^3), Mean ± SEM (0.5 mg/kg S.C. QD, Day 7): 112 ± 8 mm^3
- Tumor volume (mm^3), Mean ± SEM (0.5 mg/kg S.C. QD, Day 9): 109 ± 7 mm^3
- Tumor volume (mm^3), Mean ± SEM (0.5 mg/kg S.C. QD, Day 11): 84 ± 9 mm^3
- Tumor volume (mm^3), Mean ± SEM (0.5 mg/kg S.C. QD, Day 14): 97 ± 17 mm^3
- RTV at day 14 (0.5 mg/kg S.C. QD): 1.63 ± 0.88
- T/C (%) (0.5 mg/kg S.C. QD): 5.33%
- TGI (%) (0.5 mg/kg S.C. QD): 98.16%
- Tumor Size (mm^3) at day 14 (0.5 mg/kg S.C. QD): 96.6 ± 16.6 mm^3
- ILS (%) (0.5 mg/kg): 131%
- MST (0.5 mg/kg): 37 days
- Tumor volume (mm^3), Mean ± SEM (1 mg/kg QDx5 then 0.3 mg/kg QDx9 S.C., 2 cycles, Day 0): 63 ± 4 mm^3
- Tumor volume (mm^3), Mean ± SEM (1 mg/kg QDx5 then 0.3 mg/kg QDx9 S.C., 2 cycles, Day 2): 73 ± 5 mm^3
- Tumor volume (mm^3), Mean ± SEM (1 mg/kg QDx5 then 0.3 mg/kg QDx9 S.C., 2 cycles, Day 4): 85 ± 7 mm^3
- Tumor volume (mm^3), Mean ± SEM (1 mg/kg QDx5 then 0.3 mg/kg QDx9 S.C., 2 cycles, Day 7): 97 ± 10 mm^3
- Tumor volume (mm^3), Mean ± SEM (1 mg/kg QDx5 then 0.3 mg/kg QDx9 S.C., 2 cycles, Day 9): 101 ± 9 mm^3
- Tumor volume (mm^3), Mean ± SEM (1 mg/kg QDx5 then 0.3 mg/kg QDx9 S.C., 2 cycles, Day 11): 116 ± 19 mm^3
- Tumor volume (mm^3), Mean ± SEM (1 mg/kg QDx5 then 0.3 mg/kg QDx9 S.C., 2 cycles, Day 14): 119 ± 22 mm^3
- Tumor volume (mm^3), Mean ± SEM (1 mg/kg S.C. QD, Day 0): 62 ± 4 mm^3
- Tumor volume (mm^3), Mean ± SEM (1 mg/kg S.C. QD, Day 2): 74 ± 5 mm^3
- Tumor volume (mm^3), Mean ± SEM (1 mg/kg S.C. QD, Day 4): 85 ± 5 mm^3
- Tumor volume (mm^3), Mean ± SEM (1 mg/kg S.C. QD, Day 7): 94 ± 5 mm^3
- Tumor volume (mm^3), Mean ± SEM (1 mg/kg S.C. QD, Day 9): 100 ± 7 mm^3
- Tumor volume (mm^3), Mean ± SEM (1 mg/kg S.C. QD, Day 11): 80 ± 8 mm^3
- Tumor volume (mm^3), Mean ± SEM (1 mg/kg S.C. QD, Day 14): 68 ± 12 mm^3
- RTV at day 14 (1 mg/kg S.C. QD): 1.13 ± 0.67
- T/C (%) (1 mg/kg S.C. QD): 3.71%
- TGI (%) (1 mg/kg S.C. QD): 99.69%
- Tumor Size (mm^3) at day 14 (1 mg/kg S.C. QD): 68.23 ± 12.12 mm^3
- ILS (%) (1 mg/kg, then 0.3 mg/kg): 131%
- MST (1 mg/kg, then 0.3 mg/kg): 37 days
- ILS (%) (1 mg/kg): 144%
- MST (1 mg/kg): 39 days
- Tumor volume (mm^3), Mean ± SEM (3 mg/kg QDx5 then 1 mg/kg QDx9 S.C., 2 cycles, Day 0): 63 ± 5 mm^3
- Tumor volume (mm^3), Mean ± SEM (3 mg/kg QDx5 then 1 mg/kg QDx9 S.C., 2 cycles, Day 2): 70 ± 3 mm^3
- Tumor volume (mm^3), Mean ± SEM (3 mg/kg QDx5 then 1 mg/kg QDx9 S.C., 2 cycles, Day 4): 83 ± 7 mm^3
- Tumor volume (mm^3), Mean ± SEM (3 mg/kg QDx5 then 1 mg/kg QDx9 S.C., 2 cycles, Day 7): 87 ± 8 mm^3
- Tumor volume (mm^3), Mean ± SEM (3 mg/kg QDx5 then 1 mg/kg QDx9 S.C., 2 cycles, Day 9): 90 ± 6 mm^3
- Tumor volume (mm^3), Mean ± SEM (3 mg/kg QDx5 then 1 mg/kg QDx9 S.C., 2 cycles, Day 11): 79 ± 10 mm^3
- Tumor volume (mm^3), Mean ± SEM (3 mg/kg QDx5 then 1 mg/kg QDx9 S.C., 2 cycles, Day 14): 43 ± 4 mm^3
- ILS (%) (3 mg/kg, then 1 mg/kg): 131%
- MST (3 mg/kg, then 1 mg/kg): 37 days
- RTV at day 14 [1]: 1.85 ± 0.82
- T/C (%) [1]: 6.05%
- TGI (%) [1]: 96.95%
- Tumor Size (mm^3) at day 14 [1]: 118.69 ± 21.92 mm^3
- RTV at day 14 [2]: 0.69 ± 0.16
- T/C (%) [2]: 2.27%
- TGI (%) [2]: 101.09%
- Tumor Size (mm^3) at day 14 [2]: 42.91 ± 3.89 mm^3
- RTV at day 14 [3]: 5.99 ± 2.92
- T/C (%) [3]: 19.62%
- TGI (%) [3]: 83.19%
- Tumor Size (mm^3) at day 14 [3]: 369.41 ± 56.37 mm^3
